Measurements from patent publication US20230082968A1, “EXOGENOUS NITRIC OXIDE FOR IMPROVED SUSCEPTIBILITY AND LOWERED ANTIBIOTIC RESISTANCE IN RESISTANT RESPIRATORY BACTERIA” (The University of North Carolina at Chapel Hill, priority 2020, published 2023).
Converted amounts (≈) assume the structure as drawn. “Also recorded” adds a separate entry of the source.

What was measured:
[1] = tested on: P. aeruginosa strain K (PAK); test: Checkerboard assay of antibiotic combinations with COS/NO; format: cell-based, Pseudomonas aeruginosa; details: antibiotic in combination with COS/NO, 24 h
Procedure: Frozen stocks of bacteria were reconstituted in TSB (3 mL) and cultured overnight. The overnight cultures of bacteria (3 mL) were inoculated into fresh TSB (30 mL) and grown to 10^8 CFU/mL. […] Inhibition was assessed with the resazurin assay and the minimum inhibitory concentration (MIC) was defined as the lowest concentration of antibacterial agent required to prevent the reduction of resazurin (i.e., color change from blue to pink).
Mol. Pharm. 7, 2289-2296 (2010)]. Briefly, bacteria at a final concentration of 10^6 CFU/mL were incubated with an array of antimicrobial combinations in TSB for 24 h at 37° C. The highest concentration for each antimicrobial tested was 2 × MIC. […] The fractional […] concentration index (ΣFIC) was calculated using Equation 1, reported by Elion et al. [Elion, G. B., Singer, S. & Hitchings, G. H. Antagonists of Nucleic Acid Derivatives: VIII. Synergism in combinations of biochemically related antimetabolites. […] Checkerboard assays were conducted in at least duplicate for each bacterial strain and for each drug combination.
Characterization of the combinations was performed using the following criteria based on ΣFIC values: < 0.25 is highly synergistic; ≤ 0.5 is synergistic; ≤ 1 is additive; ≤ 4 is indifferent; > 4 is antagonistic.

[2] = tested on: PAK; test: Nitric oxide pretreatment with planktonic bacteria; format: cell-based, Pseudomonas aeruginosa; details: NO-pretreatment 25% MIC 4 h
Procedure: After exposure, wells were serially diluted in sterile MilliQ water and spiral plated on TSA. Viability was assessed by colony counting.

[3] = tested on: PAK; test: Serial passaging resistance assay; format: cell-based, Pseudomonas aeruginosa
Procedure: (§1) Bacteria at a final concentration of 10^6 CFU/mL in TSB were incubated with serial dilutions of COS/NO and/or tobramycin for 24 h. Growth was assessed by measuring absorbance at 600 nm. The wells that had the highest concentration of test agent and an OD600 corresponding to more than 10^8 CFU/mL were diluted to 10^6 cfu/mL in TSB and incubated with fresh solutions of COS/NO or tobramycin for 24 h. A single passage was defined as one exposure, incubation, and subsequent dilution. Bacteria were passaged for up to 70 days.

[4] = tested on: ATCC MRSA; test: Serial passaging resistance assay; format: cell-based, Methicillin-resistant S. aureus
Procedure: as §1

[5] = tested on: P. aeruginosa biofilms; test: Biofilm pretreatment with nitric oxide, all tested biofilms; format: cell-based; details: P. aeruginosa biofilms, COS/NO at 25% MBEC
Procedure: Bacteria were cultured to a concentration of 10^8 CFU/mL in TSB and diluted to 10^6 CFU/mL in 200 µL TSB in a 96 well plate. Plates were incubated with shaking for 3 days until a non-surface attached viscous aggregate formed that was easily separated from growth medium. Biofilms (100 µL) were removed, gently injected into PBS (200 µL) to remove loosely adhered planktonic cells, and added to a sterile 96 well plate. To the wells, PBS or test agent dissolved in PBS (100 µL) was added and incubated with shaking for 24 h. The biofilm (100 µL) was removed from the well plate, added to 900 µL sterile MilliQ water, and disrupted with pipetting and vortexing. Disrupted biofilms were serially diluted and spiral plated on TSA. Viability was assessed with colony counting. The minimum biofilm eradication concentration (MBEC) was defined as the lowest concentration of test agent required to reduce viability by 5-log (i.e., 10^8 to 10^3 CFU/mL).
The biofilm was then removed from its 96 well plate, added to a new 96 well plate containing tobramycin dissolved in PBS (100 µL), and incubated for 20 h. The biofilm was disrupted in 900 µL sterile MilliQ water with pipetting and vortexing, serially diluted, and spiral plated on TSA. Viability was assessed with colony counting.

[6] = tested on: PAK, ATCC MRSA, ATCC BCC, and AR 542; test: NPN uptake assay (outer membrane permeability); format: cell-based; details: exposure to COS/NO, FIG. 1
Procedure: The outer membrane permeability of PAK, ATCC MRSA, ATCC BCC, and AR 542 was assessed with an NPN assay modified from Helander and coworkers [Helander, I. M. & Mattila-Sandholm, T. Fluorometric assessment of Gram-negative bacterial permeabilization. J. Appl. Microbiol. 88, 213-219 (2000)]. Briefly, a stock 4560 µM NPN in acetone solution was prepared fresh each day and diluted to 456 µM in PBS pH 7.4. Bacteria were cultured to a concentration of 10^8 CFU/mL in TSB, collected via centrifugation (5,000 × g for 5 min), and resuspended in PBS. Bacteria were added to COS/NO or DMSO in 1-dram vials and incubated at 37° C. with shaking. After 10 min of incubation, a portion of the exposure solution (196 µL) was removed and added to a black well plate, and 4 µL NPN (456 µM in PBS) was added. Fluorescence was immediately measured at excitation and emission wavelengths of 350 nm and 460 nm, respectively. The background NPN fluorescence in buffer was subtracted.

Molecule	Classification (ΣFIC) [1]	ΣFIC (median fractional inhibitory concentration index) [1]	Classification ([2]; antibiotic 2 µg/mL)	Log Difference in bacteria viability with vs without NO-pretreatment ([2]; antibiotic 2 µg/mL) [log]	other results
C[C@H]1[C@H](NC(=O)/C(=N\OC(C)(C)C(=O)O)c2csc(N)n2)C(=O)N1S(=O)(=O)O [Aztreonam]	Additive	0.75	Synergistic	5.11	–
CC(C)(O/N=C(\C(=O)N[C@@H]1C(=O)N2C(C(=O)[O-])=C(C[n+]3ccccc3)CS[C@H]12)c1csc(N)n1)C(=O)O [Ceftazidime]	Additive	1	–	–	–
C[C@@H](O)[C@H]1C(=O)N2C(C(=O)O)=C(S[C@@H]3CN[C@H](C(=O)N(C)C)C3)[C@H](C)[C@H]12 [Meropenem]	Synergistic	0.5	Synergistic	3.22	–
[N]=O [NO, nitric oxide]	–	–	–	–	MICn ([3]; PAK, after n = 70 passages): 96 µg/mL; MIC ([3]; Pseudomonas aeruginosa, read-out: MIC0): 96 µg/mL (≈ 3.2 mM); MICn ([4]; ATCC MRSA, after n = 30 passages): 384 µg/mL; MIC ([4]; Staphylococcus aureus, MRSA, read-out: MIC0): 384 µg/mL (≈ 12.8 mM); biofilm viability after NO-pretreatment alone [5]: does not significantly affect; also recorded: does not significantly reduce; uptake of the hydrophobic fluorophore NPN and crystal violet dye (cell permeability) [6]: increased uptake
Colistin	Synergistic	0.5	–	–	Log Difference in bacteria viability with vs without NO-pretreatment ([2]; antibiotic […]): 5.13 log
